The record followed here is patent publication EP4467141A1, “PYRAZOLO-QUINOLINES AS SELECTIVE INHIBITORS OF GENOTOXIC STRESS-INDUCED IKK/NF- KB PATHWAYS FOR CANCER THERAPY” (Max-Delbrück-Centrum für Molekulare Medizin in der …, priority 2023, dated 2024).

Common to all, as to assay: Kinase panel study
What all share (assay type): biochemical
What all share (conditions): read-out: Percentage of inhibition; for inhibition at 1 µM: 1000nM; for inhibition at 10 µM: 10000nM

For one assay, the target named is T1, AXL (Homo sapiens, UniProt P30530).
T1 construct: purchased Thermo Fisher Scientific
T1 sequence (P30530 26-894): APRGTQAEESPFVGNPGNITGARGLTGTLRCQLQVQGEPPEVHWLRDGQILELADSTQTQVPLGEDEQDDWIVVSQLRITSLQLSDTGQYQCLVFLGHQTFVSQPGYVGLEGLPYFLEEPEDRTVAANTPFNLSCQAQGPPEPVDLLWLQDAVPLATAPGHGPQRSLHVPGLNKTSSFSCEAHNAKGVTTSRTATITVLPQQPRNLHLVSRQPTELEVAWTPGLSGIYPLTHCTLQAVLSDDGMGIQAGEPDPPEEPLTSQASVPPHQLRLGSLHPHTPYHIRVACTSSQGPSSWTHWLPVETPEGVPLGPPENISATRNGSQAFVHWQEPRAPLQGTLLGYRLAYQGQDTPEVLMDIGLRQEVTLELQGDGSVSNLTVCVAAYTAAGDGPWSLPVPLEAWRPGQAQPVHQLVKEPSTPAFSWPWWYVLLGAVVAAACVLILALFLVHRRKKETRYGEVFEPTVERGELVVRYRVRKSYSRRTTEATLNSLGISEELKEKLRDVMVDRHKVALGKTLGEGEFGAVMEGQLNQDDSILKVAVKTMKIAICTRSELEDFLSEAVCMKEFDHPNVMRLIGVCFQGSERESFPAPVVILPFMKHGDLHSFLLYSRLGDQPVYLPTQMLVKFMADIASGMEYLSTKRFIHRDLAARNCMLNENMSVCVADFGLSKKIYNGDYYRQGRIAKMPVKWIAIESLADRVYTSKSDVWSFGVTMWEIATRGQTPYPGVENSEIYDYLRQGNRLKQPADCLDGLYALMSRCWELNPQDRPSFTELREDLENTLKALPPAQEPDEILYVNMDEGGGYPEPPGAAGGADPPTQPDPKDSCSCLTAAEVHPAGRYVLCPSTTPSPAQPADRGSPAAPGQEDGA
In a few lines: (§1)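 Percent inhibition of each kinase by the test compound, given at either 1 µM or 10 µM, came from a contracted panel run by ZLyte or Adapta protocol.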

Another assay concerns the target T2, CDC42 BPG (MRCKG) (Homo sapiens, UniProt Q6DT37).
T2 construct: purchased Thermo Fisher Scientific
In outline: as §1

Another assay deals with T3, CDK7/cyclin H/MNAT1 (Homo sapiens, UniProt P50613).
T3 construct: purchased Thermo Fisher Scientific
T3 sequence (P50613 whole entry): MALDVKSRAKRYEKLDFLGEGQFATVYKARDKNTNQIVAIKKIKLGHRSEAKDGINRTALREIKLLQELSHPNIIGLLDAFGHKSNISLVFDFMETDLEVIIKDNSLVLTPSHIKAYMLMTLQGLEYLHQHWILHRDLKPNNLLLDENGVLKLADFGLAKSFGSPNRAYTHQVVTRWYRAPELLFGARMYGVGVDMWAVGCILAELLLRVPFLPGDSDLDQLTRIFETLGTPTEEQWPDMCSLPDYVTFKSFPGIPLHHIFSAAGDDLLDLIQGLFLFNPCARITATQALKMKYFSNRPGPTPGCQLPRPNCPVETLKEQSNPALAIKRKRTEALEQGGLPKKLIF
T3 sequence (P51946 whole entry partner): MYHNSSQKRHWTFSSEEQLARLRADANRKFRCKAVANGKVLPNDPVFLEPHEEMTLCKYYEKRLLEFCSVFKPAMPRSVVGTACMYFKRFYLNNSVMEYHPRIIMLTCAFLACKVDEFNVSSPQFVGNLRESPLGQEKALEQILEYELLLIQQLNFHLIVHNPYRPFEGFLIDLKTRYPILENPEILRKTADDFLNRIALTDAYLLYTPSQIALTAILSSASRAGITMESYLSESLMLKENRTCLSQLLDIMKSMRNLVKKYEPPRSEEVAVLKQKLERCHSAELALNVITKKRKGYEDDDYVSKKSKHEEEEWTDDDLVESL
T3 sequence (P51948 whole entry partner): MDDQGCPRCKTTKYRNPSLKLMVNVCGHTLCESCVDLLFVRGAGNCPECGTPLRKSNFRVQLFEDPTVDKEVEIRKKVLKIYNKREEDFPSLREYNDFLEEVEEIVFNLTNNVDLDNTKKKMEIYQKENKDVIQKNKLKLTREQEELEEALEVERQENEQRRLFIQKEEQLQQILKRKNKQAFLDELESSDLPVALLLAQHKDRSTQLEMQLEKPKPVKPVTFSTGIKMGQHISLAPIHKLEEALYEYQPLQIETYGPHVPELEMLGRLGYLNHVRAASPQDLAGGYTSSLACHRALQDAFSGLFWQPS
In outline: as §1

In the next assay the target is T4, HCK (Homo sapiens, UniProt P08631).
T4 construct: purchased Thermo Fisher Scientific
T4 sequence (P08631 whole entry): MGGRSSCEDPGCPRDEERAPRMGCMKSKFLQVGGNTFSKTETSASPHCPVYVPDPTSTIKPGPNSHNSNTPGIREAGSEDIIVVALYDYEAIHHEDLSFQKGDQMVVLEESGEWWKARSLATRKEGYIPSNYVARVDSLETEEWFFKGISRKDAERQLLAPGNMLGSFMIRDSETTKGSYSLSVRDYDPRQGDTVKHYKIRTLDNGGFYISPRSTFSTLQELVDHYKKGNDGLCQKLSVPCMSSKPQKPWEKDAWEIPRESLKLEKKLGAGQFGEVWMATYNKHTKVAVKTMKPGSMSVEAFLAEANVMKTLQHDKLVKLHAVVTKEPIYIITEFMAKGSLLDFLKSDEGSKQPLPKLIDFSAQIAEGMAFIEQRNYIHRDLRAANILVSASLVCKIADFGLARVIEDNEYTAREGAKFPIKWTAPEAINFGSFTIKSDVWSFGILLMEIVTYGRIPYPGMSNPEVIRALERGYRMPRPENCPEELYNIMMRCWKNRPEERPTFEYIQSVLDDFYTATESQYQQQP
In a few lines:
as §1

The target of another assay is T5, LYN A (Homo sapiens, UniProt P07948).
T5 construct: purchased Thermo Fisher Scientific
In outline:
as §1

For a further assay, the target named is T6, MATK (HYL) (Homo sapiens, UniProt P42679).
T6 construct: purchased Thermo Fisher Scientific
T6 sequence (P42679 1-507): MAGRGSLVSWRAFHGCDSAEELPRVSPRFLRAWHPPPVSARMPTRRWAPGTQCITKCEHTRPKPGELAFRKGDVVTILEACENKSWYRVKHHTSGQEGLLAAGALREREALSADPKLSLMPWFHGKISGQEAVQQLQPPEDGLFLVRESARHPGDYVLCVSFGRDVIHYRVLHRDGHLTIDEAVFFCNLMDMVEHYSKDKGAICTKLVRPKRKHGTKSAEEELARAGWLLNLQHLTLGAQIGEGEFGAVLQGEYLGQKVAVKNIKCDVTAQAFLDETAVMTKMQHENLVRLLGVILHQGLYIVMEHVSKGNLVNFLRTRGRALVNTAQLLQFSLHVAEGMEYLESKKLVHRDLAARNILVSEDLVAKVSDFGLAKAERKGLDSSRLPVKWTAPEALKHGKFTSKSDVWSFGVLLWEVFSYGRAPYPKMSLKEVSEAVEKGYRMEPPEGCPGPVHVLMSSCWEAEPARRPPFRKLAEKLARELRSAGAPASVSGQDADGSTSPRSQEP
In a few lines:
as §1

A further assay deals with T7, PIK3C2B (PI3K-C2 beta) (Homo sapiens, UniProt O00750).
T7 construct: purchased Thermo Fisher Scientific
In outline:
as §1

The target of another assay is T8, PIK3C3 (hVPS34) (Homo sapiens, UniProt Q8NEB9).
T8 construct: purchased Thermo Fisher Scientific
In a few lines: as §1

The next assay deals with T9, RET A883F (Homo sapiens, UniProt P07949, A883F).
T9 construct: purchased Thermo Fisher Scientific
T9 sequence (P07949 29-1114 A883F): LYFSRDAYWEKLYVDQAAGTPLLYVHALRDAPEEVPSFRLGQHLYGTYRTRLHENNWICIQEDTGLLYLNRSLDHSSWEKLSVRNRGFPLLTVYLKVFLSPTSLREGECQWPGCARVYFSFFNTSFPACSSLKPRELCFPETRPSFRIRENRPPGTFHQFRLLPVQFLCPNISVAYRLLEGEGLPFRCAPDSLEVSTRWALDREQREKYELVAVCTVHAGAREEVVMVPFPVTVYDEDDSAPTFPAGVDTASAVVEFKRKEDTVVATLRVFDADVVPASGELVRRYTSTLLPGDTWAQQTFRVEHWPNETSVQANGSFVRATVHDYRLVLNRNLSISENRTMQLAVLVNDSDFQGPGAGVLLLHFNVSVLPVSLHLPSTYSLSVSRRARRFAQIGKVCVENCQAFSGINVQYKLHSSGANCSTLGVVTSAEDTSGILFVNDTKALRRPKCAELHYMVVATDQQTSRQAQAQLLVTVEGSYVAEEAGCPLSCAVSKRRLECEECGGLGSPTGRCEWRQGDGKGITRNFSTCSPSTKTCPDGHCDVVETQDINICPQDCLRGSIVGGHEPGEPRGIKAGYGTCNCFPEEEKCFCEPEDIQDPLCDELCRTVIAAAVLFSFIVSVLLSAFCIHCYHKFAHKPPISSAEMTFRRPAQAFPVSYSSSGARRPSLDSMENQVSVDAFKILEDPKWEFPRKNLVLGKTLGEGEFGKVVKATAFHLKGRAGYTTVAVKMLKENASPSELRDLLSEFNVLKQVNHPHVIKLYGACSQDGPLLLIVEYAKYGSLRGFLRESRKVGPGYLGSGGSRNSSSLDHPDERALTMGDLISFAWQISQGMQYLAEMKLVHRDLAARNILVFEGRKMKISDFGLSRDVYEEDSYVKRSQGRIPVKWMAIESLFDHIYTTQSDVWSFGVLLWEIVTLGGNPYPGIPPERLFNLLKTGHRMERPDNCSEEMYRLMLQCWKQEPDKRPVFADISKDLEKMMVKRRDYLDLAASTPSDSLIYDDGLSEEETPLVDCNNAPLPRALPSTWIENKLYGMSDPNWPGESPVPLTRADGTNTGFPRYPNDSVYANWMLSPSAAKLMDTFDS
In a few lines: as §1

The next assay deals with T10, RPS6KA1 (RSK1) (Homo sapiens, UniProt Q15418).
T10 construct: purchased Thermo Fisher Scientific
T10 sequence (Q15418 whole entry): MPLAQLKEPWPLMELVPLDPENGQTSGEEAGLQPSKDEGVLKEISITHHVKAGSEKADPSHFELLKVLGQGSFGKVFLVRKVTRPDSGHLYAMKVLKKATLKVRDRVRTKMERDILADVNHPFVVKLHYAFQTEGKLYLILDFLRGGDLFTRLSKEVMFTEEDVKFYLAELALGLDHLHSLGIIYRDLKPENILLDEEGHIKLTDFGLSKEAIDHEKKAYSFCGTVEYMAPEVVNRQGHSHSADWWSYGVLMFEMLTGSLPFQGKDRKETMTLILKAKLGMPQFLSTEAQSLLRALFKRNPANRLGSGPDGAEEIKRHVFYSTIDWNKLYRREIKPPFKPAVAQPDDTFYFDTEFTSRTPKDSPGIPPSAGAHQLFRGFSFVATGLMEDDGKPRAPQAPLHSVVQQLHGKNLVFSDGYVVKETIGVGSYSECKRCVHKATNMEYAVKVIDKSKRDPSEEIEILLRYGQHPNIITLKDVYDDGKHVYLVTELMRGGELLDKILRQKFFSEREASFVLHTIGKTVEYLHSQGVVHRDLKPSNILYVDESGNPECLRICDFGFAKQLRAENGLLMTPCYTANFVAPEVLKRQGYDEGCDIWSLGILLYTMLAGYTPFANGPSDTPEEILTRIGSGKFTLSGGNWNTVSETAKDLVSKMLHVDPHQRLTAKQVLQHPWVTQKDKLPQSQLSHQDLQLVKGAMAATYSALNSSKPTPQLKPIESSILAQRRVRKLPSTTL
In outline:
as §1

T2 sequence (Q6DT37 whole entry): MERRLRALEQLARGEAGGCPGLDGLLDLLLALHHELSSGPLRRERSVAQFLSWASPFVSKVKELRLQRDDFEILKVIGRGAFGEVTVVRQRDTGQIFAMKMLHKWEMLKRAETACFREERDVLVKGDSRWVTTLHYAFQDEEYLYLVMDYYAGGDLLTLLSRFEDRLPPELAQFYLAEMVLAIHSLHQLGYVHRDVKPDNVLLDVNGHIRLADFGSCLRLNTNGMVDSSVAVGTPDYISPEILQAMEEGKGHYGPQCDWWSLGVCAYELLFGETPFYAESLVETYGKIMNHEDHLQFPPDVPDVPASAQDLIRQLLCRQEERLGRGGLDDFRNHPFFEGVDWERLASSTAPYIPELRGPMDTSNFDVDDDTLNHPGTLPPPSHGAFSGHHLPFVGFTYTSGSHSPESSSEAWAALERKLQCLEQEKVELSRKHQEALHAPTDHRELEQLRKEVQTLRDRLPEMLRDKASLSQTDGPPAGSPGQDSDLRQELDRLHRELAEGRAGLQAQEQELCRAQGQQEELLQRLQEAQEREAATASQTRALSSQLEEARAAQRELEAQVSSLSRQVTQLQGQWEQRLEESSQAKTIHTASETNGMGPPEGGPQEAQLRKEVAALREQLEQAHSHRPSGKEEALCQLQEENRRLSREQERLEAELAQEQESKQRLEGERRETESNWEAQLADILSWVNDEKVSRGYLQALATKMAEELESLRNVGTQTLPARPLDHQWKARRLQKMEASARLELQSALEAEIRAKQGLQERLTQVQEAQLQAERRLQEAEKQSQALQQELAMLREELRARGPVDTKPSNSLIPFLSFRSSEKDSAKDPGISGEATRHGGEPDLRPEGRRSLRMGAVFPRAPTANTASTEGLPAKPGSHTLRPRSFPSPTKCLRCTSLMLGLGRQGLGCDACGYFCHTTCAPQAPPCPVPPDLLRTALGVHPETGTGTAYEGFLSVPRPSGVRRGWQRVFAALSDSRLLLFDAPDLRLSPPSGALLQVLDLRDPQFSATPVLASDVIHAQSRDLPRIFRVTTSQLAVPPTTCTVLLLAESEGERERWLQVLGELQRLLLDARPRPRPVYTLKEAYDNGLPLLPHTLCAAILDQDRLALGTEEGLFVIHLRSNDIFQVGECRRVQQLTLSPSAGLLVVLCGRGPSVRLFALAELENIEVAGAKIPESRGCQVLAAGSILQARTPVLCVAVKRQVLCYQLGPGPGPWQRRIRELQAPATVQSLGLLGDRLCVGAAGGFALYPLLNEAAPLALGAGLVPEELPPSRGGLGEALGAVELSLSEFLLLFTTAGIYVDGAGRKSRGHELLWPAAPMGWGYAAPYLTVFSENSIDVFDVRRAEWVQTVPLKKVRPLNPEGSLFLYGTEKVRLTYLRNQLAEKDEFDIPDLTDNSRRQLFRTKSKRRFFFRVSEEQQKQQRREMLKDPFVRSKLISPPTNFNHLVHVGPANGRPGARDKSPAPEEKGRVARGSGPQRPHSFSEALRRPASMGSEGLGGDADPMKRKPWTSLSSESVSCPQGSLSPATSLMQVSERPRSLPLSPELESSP

As a reminder, the inhibition is the drop in the measured response relative to a control, in per cent. With `COc1ccc2c(c1OC)c(=O)n1c3ccc(O)cc3c3ccnc2c31` [MW01, 5-Hydroxy-10,11-dimethoxy-9H-benzo[c]indolo[3,2,1-ij][1,5]naphthyridin-9-one], the inhibition at 1 µM on AXL came to 51%; at CDC42 BPG (MRCKG), 1%; at CDK7/cyclin H/MNAT1 it was 3%; at HCK, 13%; at LYN A it was 5%; at MATK (HYL), 14%. For the same molecule, the inhibition at 1 µM at PIK3C2B (PI3K-C2 beta) turned out to be 53%; on PIK3C3 (hVPS34), 23%; at RET A883F, 10%; on RPS6KA1 (RSK1), 12%. Besides, the inhibition at 10 µM on AXL was 80%; on CDC42 BPG (MRCKG) it was 5%; on CDK7/cyclin H/MNAT1 it was 4%; on HCK it was 22%; at LYN A, 18%; on MATK (HYL) it was 2%. Further, the inhibition at 10 µM at PIK3C2B (PI3K-C2 beta) came to 68%; at PIK3C3 (hVPS34), 49%; on RET A883F it was 24%; at RPS6KA1 (RSK1), 19%.
For the molecule `COc1ccc2cc3c(N)nn(C(=O)c4cccc(N(C)C)c4)c3nc2c1` [MW05, (3-Amino-7-methoxypyrazolo[3,4-b]quinolin-1-yl)-[3-(dimethylamino)phenyl]methanone], the inhibition at 1 µM at AXL was 4%; on CDC42 BPG (MRCKG), 0%; at CDK7/cyclin H/MNAT1, 2%; at HCK it was 10%; at LYN A, 1%; at MATK (HYL), 13%. For the same molecule, the inhibition at 1 µM on PIK3C2B (PI3K-C2 beta) was determined as 2%; at PIK3C3 (hVPS34) it was 4%; at RET A883F it was 7%; at RPS6KA1 (RSK1), 10%. In addition, the inhibition at 10 µM at AXL is -8%; on CDC42 BPG (MRCKG), 0%; on CDK7/cyclin H/MNAT1 it was 29%; at HCK, 9%; at LYN A it was -6%; at MATK (HYL), 13%. Also, the inhibition at 10 µM at PIK3C2B (PI3K-C2 beta) came to 12%; at PIK3C3 (hVPS34), 4%; at RET A883F it was 3%; on RPS6KA1 (RSK1), 3%.
